Values quoted from earlier work as cited in patent EP3290033A2, “PHARMACEUTICAL PACKAGE” (Samyang Biopharmaceuticals Corporation, priority 2015, dated 2016).

Legend:
[1] = higher than that of other first-generation 5-HT3 receptor antagonists
[2] = in vivo

O=C1c2cccc3c2[C@H](CCC3)CN1[C@@H]1CN2CCC1CC2 [palonosetron, (3aS)-2-[(3S)-1-azabicyclo[2.2.2]oct-3-yl]-2,3,3a,4,5,6-hexahydro-1H-benz[de]isoquinolin-1-one]
inhibitory effect on delayed vomiting [1]: 10 times | half-life [2]: ≥ 40 h
